Measured values: patent US20250296949A1, “HIGH PURITY NON-ANIMAL DERIVED UDCA” (priority 2021, published 2025)

Test: DVS mass change of crystalline 3,7-DKCA salts
Type: physicochemical
In the case of CC(C)NC(C)C.C[C@H](CCC(=O)O)[C@H]1CC[C@H]2[C@@H]3C(=O)C[C@@H]4CC(=O)CC[C@]4(C)[C@H]3CC[C@]12C [Diisopropylamine salt, diisopropylamine salt of 3,7-DKCA], the “DVS mass change 5-95% RH (wt. %)” value is reported as 2.53 wt. %. With C[C@H](CCC(=O)O)[C@H]1CC[C@H]2[C@@H]3C(=O)C[C@@H]4CC(=O)CC[C@]4(C)[C@H]3CC[C@]12C.NCCN [Ethylenediamine salt, ethylenediamine salt of 3,7-DKCA] the “DVS mass change 5-95% RH (wt. %)” value was 19.60 wt. %. For CC(C)(C)N.C[C@H](CCC(=O)O)[C@H]1CC[C@H]2[C@@H]3C(=O)C[C@@H]4CC(=O)CC[C@]4(C)[C@H]3CC[C@]12C [tert-Butylamine salt, tert-butylamine salt of 3,7-DKCA], the “DVS mass change 5-95% RH (wt. %)” value was 10.89 wt. %.
